ChEMBL document CHEMBL5154882, “Discovery of 4-Hydroxyquinazoline Derivatives as Small Molecular BET/PARP1 Inhibitors That Induce Defective Homologous Recombination and Lead to Synthetic Lethality for Triple-Negative Breast Cancer Therapy” (J Med Chem, 2022)
Activity calls are given as the source filed them. The rule behind the calls is not given here.

Experiments:
[1] = tested on: MDA-MB-468; assay: Induction of apoptosis in human MDA-MB-468 cells assessed as downregulation of Bcl-2 protein level incubated for 72 hrs in presence of olaparib by Western blot analysis; assay type: functional, cell-based
[2] = tested on: MDA-MB-231; assay: Induction of DNA damage in human MDA-MB-231 cells assessed as increase in tail DNA at 1 uM measured after 3 days in presence of olaparib by comet assay; assay type: functional, cell-based; conditions: time 3.0 day
[3] = tested on: MDA-MB-231; assay: Induction of DNA damage in human MDA-MB-231 cells assessed as increase in tail DNA measured at 1 uM after 3 days by comet assay; assay type: functional, cell-based; conditions: time 3.0 day
[4] = tested on: MDA-MB-468; assay: Cell cycle arrest in human MDA-MB-468 cells assessed as accumulation at S phase incubated for 72 hrs in presence of olaparib by propidium iodide staining-based flow cytometry analysis (reference value: 21.1%); assay type: functional
[5] = tested on: MDA-MB-468; assay: Induction of DNA damage in human MDA-MB-468 cells assessed as up-regulation of gammaH2AX expression level at 1 uM in presence of olaparib by DAPI staining based immunofluorescence assay; assay type: functional, cell-based
[6] = tested on: MDA-MB-468; assay: Synergistic antiproliferative activity against human MDA-MB-468 cells at compound to Olaparib ratio of 1:3; assay type: functional, cell-based
[7] = tested on: MDA-MB-468; assay: Induction of apoptosis in human MDA-MB-468 cells assessed as late apoptotic cells at 1 uM incubated for 72 hrs in presence of olaparib by annexin V/propidium iodide staining-based flow cytometry analysis (reference value: 1.34%); assay type: functional
[8] = tested on: MDA-MB-468; assay: Induction of apoptosis in human MDA-MB-468 cells assessed as up-regulation of Bax protein level at incubated for 72 hrs in presence of olaparib by Western blot analysis; assay type: functional, cell-based
[9] = tested on: MDA-MB-468; assay: Induction of apoptosis in human MDA-MB-468 cells assessed as early apoptotic cells at 1 uM incubated for 72 hrs in presence of olaparib by annexin V/propidium iodide staining-based flow cytometry analysis (reference value: 4.07%); assay type: functional
[10] = tested on: MDA-MB-468; assay: Cell cycle arrest in human MDA-MB-468 cells assessed as accumulation at G0/G1 phase incubated for 72 hrs in presence of olaparib by propidium iodide staining-based flow cytometry analysis (reference value: 61.4%); assay type: functional
[11] = tested on: MDA-MB-468; assay: Induction of apoptosis in human MDA-MB-468 cells assessed as up-regulation of cleaved caspase 3 protein level incubated for 72 hrs in presence of olaparib by Western blot analysis; assay type: functional, cell-based
[12] = tested on: MDA-MB-468; assay: Induction of DNA damage in human MDA-MB-468 cells assessed as up-regulation of gammaH2AX expression level at 1 uM incubated for 60 mins by DAPI staining based immunofluorescence assay; assay type: functional, cell-based
[13] = tested on: MDA-MB-468; assay: Cell cycle arrest in human MDA-MB-468 cells assessed as accumulation at S phase incubated for 72 hrs in presence of olaparib by propidium iodide staining-based flow cytometry analysis (Rvb=16.1%); assay type: functional

## Cc1sc2c(c1C)C(c1ccc(Cl)cc1)=NC(CC(=O)OC(C)(C)C)c1nnc(C)n1-2 (stereo not drawn)
[1]
  Activity: Active
[2]
  Activity: Active
[3]
  Activity: Active
[4]
  Activity: 27.9%
[5]
  Activity: Active
[6]
  Activity: Active
[7]
  Activity: 7.3%
[8]
  Activity: Active
[9]
  Activity: 30.72%
[10]
  Activity: 58.9%
[11]
  Activity: Active
[12]
  Activity: Active
[13]
  Activity: 12.8%
